In patent US12427212B2, “Nectin-4 binding miniproteins, conjugates and uses thereof” (Aktis Oncology, Inc., priority 2023, dated 2025):
Bridges are numbered along the chain shown (N, C = ends). [ ]: non-standard residue; d: D form. The star is where a group is joined. DOTA = O=C(O)CN1CCN(CC(=O)O)CCN(CC(=O)*)CCN(CC(=O)O)CC1; Arg(Me2s) = CN=C(NC)NCCC[C@H](N)C(=O)O; PEG4 = NCCOCCOCCOCCOCCC(=O)O

Columns and labels:
[1] = In vivo biodistribution of 111In-labeled miniproteins by SPECT/CT, HT-1376 xenograft; design: species or system mouse; conditions: female, athymic nude, mouse, in vivo
From the text: HT-1376 is a human cell line that expresses Nectin-4.
Humane endpoints: All animals were euthanized following the final imaging time point and carcasses were discarded according to IACUC protocols.
Image Processing: Images were generated as SPECT/CT pairs with the SPECT reported in units of activity.
Image generation: After the preprocessing described in A, individual maximum intensity projections (MIPs) were created with VivoQuant software for each subject at each time point and scaled in percent injected dose per gram (% ID/g). The CT for each image was windowed from −500 to 4500 Hounsfield Units (HU). The SPECT was windowed at various ranges to highlight different regions of uptake. Images were then stitched together using Image Magick based python tools to create montages of subjects over time and time points over groups.

[2] = In vitro metabolic stability in serum/plasma (percent parent remaining, LC-MS); format: in vitro ADME; conditions: mouse
Experimental: Exemplary miniproteins were spiked into biological matrices at initial concentration between 1-2 μM. Tested matrices were varied by species (mouse, rat, human) and type (plasma, serum, and kidney brush border membrane (kBBM) preparations tested each from 0.625-100 μg/mL protein content). Tested conditions were incubated with miniproteins at 37° C. for 4 h. At collection points of 0, 15, 30, 60, 120, 240 minutes, 50 μL of each condition were quenched by organic solvent (methanol or acetonitrile) or the addition of 4% phosphoric acid solution followed by solid-phase extraction. Fractions of each quenched timepoint were subsequently assayed for parent miniproteins concentration by high resolution LC-MS. Percent-parent-remaining-time plots were constructed from the ratio of each given time collection to the time-zero parent miniprotein. Percent-parent-remaining in mouse serum and plasma for exemplary miniproteins are recorded in TABLE 11.

[3] = molecular target: T1, Nectin-4 (Homo sapiens, UniProt Q96NY8); assay: DELFIA whole cell binding assay, equilibrium binding affinity (KD), Table 2B; conditions: Table 2B, binding to Nectin-4; read-out: Binding Affinity (KD)
T1 sequence (Q96NY8 32-510): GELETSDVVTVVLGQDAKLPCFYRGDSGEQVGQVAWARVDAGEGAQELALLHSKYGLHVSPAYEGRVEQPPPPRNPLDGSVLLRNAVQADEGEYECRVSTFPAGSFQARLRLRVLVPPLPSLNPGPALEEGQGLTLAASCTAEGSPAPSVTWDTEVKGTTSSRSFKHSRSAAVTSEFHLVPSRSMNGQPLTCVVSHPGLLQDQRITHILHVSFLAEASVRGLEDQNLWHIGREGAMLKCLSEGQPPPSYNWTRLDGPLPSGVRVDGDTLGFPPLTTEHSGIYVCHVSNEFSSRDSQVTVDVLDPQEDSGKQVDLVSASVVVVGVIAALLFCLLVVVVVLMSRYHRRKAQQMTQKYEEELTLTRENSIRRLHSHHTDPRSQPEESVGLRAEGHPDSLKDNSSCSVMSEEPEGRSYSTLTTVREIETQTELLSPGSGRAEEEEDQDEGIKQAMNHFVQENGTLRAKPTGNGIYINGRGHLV
Experimental: A whole cell binding assay was used to estimate the equilibrium binding affinity (KD) or binding inhibition constant (Ki) of miniprotein ligands to cells expressing a target of interest. Cells were dispensed into a 384-well plate and incubated at 37° C., in 5% CO2 overnight. The next day cells were gently washed once in assay buffer prior to addition of europium chelated ligand. For KD determination, a miniprotein conjugated with europium chelate (DOTA or DTPA) in the presence or absence of 100-fold excess un-conjugated ligand was incubated with cells over 12 different concentrations ranging from 100 times below and above expected KD values. For Ki determination, a single concentration (KD equivalent concentration) of europium-chelate miniprotein was added to each well followed immediately by the addition of unconjugated competing ligand over 12 different concentrations ranging from 100 times below and above expected Ki values as before. The plate was incubated for 1.5 h at room temperature to reach binding equilibrium. Cells were then washed three times at room temperature with 1×PBS followed by the addition of 2 M HCl and incubated for two h at 37° C. Following this step, 2 M NaOH and fluorescent inducer solution were added to each well and incubated for 30 minutes at room temperature according to the manufacturer's protocol (Perkin-ELMER DELFIA assay). Plates were read on an Envision plate reader and a curve-fitting model was applied to estimate KD and Ki values using GraphPad Prism software. Mean DELFIA K; values for exemplary miniproteins are recorded in TABLE 9A.

Molecule | tissue uptake at 4 h [1] | tissue uptake at 24 h [1] | half-life [2] | half-life ([2]; plasma) | Kd [3]
CC[C@H](C)[C@@H]1NC(=O)[C@H](Cc2ccc(O)cc2)NC(=O)[C@H](CCC(=O)O)NC(=O)[C@@H]2CSSC[C@@H](C(=O)N[C@@H](CO)C(=O)O)NC(=O)CNC(=O)[C@H](CC(C)C)NC(=O)[C@H](CC(N)=O)NC(=O)[C@H](CC(=O)O)NC(=O)[C@H](CC(C)C)NC(=O)[C@H]([C@@H](C)CC)NC(=O)[C@H](CCC(=O)O)NC(=O)[C@H](CCC(=O)O)NC(=O)[C@H]([C@@H](C)CC)NC(=O)[C@H](CSSC[C@H](NC(=O)CCOCCOCCOCCOCCNC(=O)CN3CCN(CC(=O)O)CCN(CC(=O)O)CCN(CC(=O)O)CC3)C(=O)N[C@@H](CC(=O)O)C(=O)N[C@@H](Cc3ccc(O)cc3)C(=O)N[C@@H](CC(=O)O)C(=O)N[C@@H](CCC(=O)O)C(=O)N[C@@H](CCC(N)=O)C(=O)N[C@@H](Cc3ccccc3)C(=O)N[C@@H](Cc3ccccc3)C(=O)N[C@@H]([C@@H](C)O)C(=O)N[C@@H](C)C(=O)N[C@@H](CC(C)C)C(=O)N[C@@H](CCCCN)C(=O)N[C@@H](CCCNC(=N)N)C(=O)N[C@@H](CC(C)C)C(=O)N[C@@H](CCCNC(=N)N)C(=O)NCC(=O)NCC(=O)N[C@@H](CC(=O)O)C(=O)N[C@@H]([C@@H](C)CC)C(=O)N2)NC(=O)[C@H](CC(C)C)NC(=O)CNC(=O)[C@@H]2CCCN2C(=O)[C@H](CC(C)C)NC(=O)[C@H](Cc2ccc(O)cc2)NC(=O)[C@H](CCC(N)=O)NC(=O)[C@H](Cc2ccccc2)NC(=O)[C@H](CO)NC(=O)[C@H](C)NC(=O)[C@H](CCC(N)=O)NC1=O [Compound C241] | 60.1 %ID/g | 38.3 %ID/g | > 720 min | > 720 min | –
{DOTA-PEG4}-CEYDEQFFTALARLRGGDICEYIQARFQYLPGLCIEEILDNLGCS-OH (disulfide 1-34, 20-44 (inferred)) [Compound C265] | – | – | > 720 min | > 720 min | –
CC[C@H](C)[C@@H]1NC(=O)[C@H](Cc2ccc(O)cc2)NC(=O)[C@H](CCC(=O)O)NC(=O)[C@@H]2CSSC[C@@H](C(=O)N[C@@H](CO)C(=O)O)NC(=O)CNC(=O)[C@H](CC(C)C)NC(=O)[C@H](CC(N)=O)NC(=O)[C@H](CC(=O)O)NC(=O)[C@H](CC(C)C)NC(=O)[C@H]([C@@H](C)CC)NC(=O)[C@H](CCC(=O)O)NC(=O)[C@H](CCC(=O)O)NC(=O)[C@H]([C@@H](C)CC)NC(=O)[C@H](CSSC[C@H](NC(=O)CCOCCOCCOCCOCCNC(=O)CN3CCN(CC(=O)O)CCN(CC(=O)O)CCN(CC(=O)O)CC3)C(=O)N[C@@H](CC(=O)O)C(=O)N[C@@H](Cc3ccc(O)cc3)C(=O)N[C@@H](CC(=O)O)C(=O)N[C@@H](CCC(=O)O)C(=O)N[C@@H](CCC(N)=O)C(=O)N[C@@H](Cc3ccccc3)C(=O)N[C@@H](Cc3ccccc3)C(=O)N[C@@H]([C@@H](C)O)C(=O)N[C@@H](C)C(=O)N[C@@H](CC(C)C)C(=O)N[C@@H](CCCCN)C(=O)N[C@@H](CCCNC(=N)N)C(=O)N[C@@H](CC(C)C)C(=O)N[C@@H](CCCNC(=N)N)C(=O)NCC(=O)N[C@@H](C)C(=O)N[C@@H](CC(=O)O)C(=O)N[C@@H]([C@@H](C)CC)C(=O)N2)NC(=O)[C@H](CCC(=O)O)NC(=O)CNC(=O)[C@@H]2CCCN2C(=O)[C@H](CC(C)C)NC(=O)[C@H](Cc2ccc(O)cc2)NC(=O)[C@H](CCC(N)=O)NC(=O)[C@H](Cc2ccccc2)NC(=O)[C@H](CO)NC(=O)[C@H](C)NC(=O)[C@H](CCC(N)=O)NC1=O [Compound C271] | 59.1 %ID/g | 34.3 %ID/g | > 720 min | > 720 min | –
{DOTA-PEG4}-CEYDEQFFTALKRLRGADICSYIQASFQYLPGLCIEEILDNLGCS-OH (disulfide 1-34, 20-44) [Compound C250] | 67.5 %ID/g | 34.9 %ID/g | > 720 min | > 720 min | –
{DOTA-PEG4}-CEYDEQFFTALARLRGGDICEYIQA[Arg(Me2s)]FQYLPGLCIEEILDNLGCS-OH (disulfide 1-34, 20-44 (inferred)) [Compound C268] | – | – | > 720 min | > 720 min | –
CC[C@H](C)[C@@H]1NC(=O)CNC(=O)[C@@H]2CCCN2C(=O)[C@H](CC(C)C)NC(=O)[C@H](Cc2ccc(O)cc2)NC(=O)[C@H](CC(N)=O)NC(=O)[C@H](Cc2ccccc2)NC(=O)[C@H](C)NC(=O)[C@H](CCC(N)=O)NC(=O)[C@H](CCC(N)=O)NC(=O)[C@H]([C@@H](C)CC)NC(=O)[C@H](Cc2ccc(O)cc2)NC(=O)[C@H](Cc2ccc(O)cc2)NC(=O)[C@@H]2CSSC[C@@H](C(=O)O)NC(=O)CNC(=O)[C@H](CC(C)C)NC(=O)[C@H](CC(N)=O)NC(=O)[C@H](CC(=O)O)NC(=O)[C@H](CC(C)C)NC(=O)[C@H]([C@@H](C)CC)NC(=O)[C@H](CCC(=O)O)NC(=O)[C@H](CCC(=O)O)NC(=O)[C@H]([C@@H](C)CC)NC(=O)[C@H](CSSC[C@H](NC(C)=O)C(=O)N[C@@H](CCC(=O)O)C(=O)N[C@@H](Cc3ccc(O)cc3)C(=O)N[C@@H](CC(=O)O)C(=O)N[C@@H](CCC(=O)O)C(=O)N[C@@H](CCC(=O)O)C(=O)N[C@@H](Cc3ccccc3)C(=O)N[C@@H](Cc3ccccc3)C(=O)N[C@@H]([C@@H](C)O)C(=O)N[C@@H](C)C(=O)N[C@@H](CC(C)C)C(=O)N[C@@H](CCCCN)C(=O)N[C@@H](CCCCN)C(=O)N[C@@H](CC(C)C)C(=O)N[C@@H](CCCNC(=N)N)C(=O)NCC(=O)NCC(=O)N[C@@H](CC(=O)O)C(=O)N[C@@H]([C@@H](C)CC)C(=O)N2)NC1=O [Compound C104] | 69.6 %ID/g | 40.6 %ID/g | – | – | 3.7 nM
CC[C@H](C)[C@@H]1NC(=O)[C@H](Cc2ccc(O)cc2)NC(=O)[C@H](CC(=O)O)NC(=O)[C@@H]2CSSC[C@@H](C(=O)N[C@@H](CO)C(=O)O)NC(=O)CNC(=O)[C@H](CC(C)C)NC(=O)[C@H](CC(N)=O)NC(=O)[C@H](CC(=O)O)NC(=O)[C@H](CC(C)C)NC(=O)[C@H]([C@@H](C)CC)NC(=O)[C@H](CCC(=O)O)NC(=O)[C@H](CCC(=O)O)NC(=O)[C@H]([C@@H](C)CC)NC(=O)[C@H](CSSC[C@H](NC(=O)CCOCCOCCOCCOCCNC(=O)CN3CCN(CC(=O)O)CCN(CC(=O)O)CCN(CC(=O)O)CC3)C(=O)N[C@@H](CCC(=O)O)C(=O)N[C@@H](Cc3ccc(O)cc3)C(=O)N[C@@H](CC(=O)O)C(=O)N[C@@H](CCC(=O)O)C(=O)N[C@@H](CCC(N)=O)C(=O)N[C@@H](Cc3ccccc3)C(=O)N[C@@H](Cc3ccccc3)C(=O)N[C@@H]([C@@H](C)O)C(=O)N[C@@H](C)C(=O)N[C@@H](CC(C)C)C(=O)N[C@@H](CCCCN)C(=O)N[C@@H](CCCNC(=N)N)C(=O)N[C@@H](CC(C)C)C(=O)N[C@@H](CCCNC(=N)N)C(=O)NCC(=O)N[C@@H](CC(=O)O)C(=O)N[C@@H](CC(=O)O)C(=O)N[C@@H]([C@@H](C)CC)C(=O)N2)NC(=O)[C@H](CC(C)C)NC(=O)CNC(=O)[C@@H]2CCCN2C(=O)[C@H](CC(C)C)NC(=O)[C@H](Cc2ccc(O)cc2)NC(=O)[C@H](CCC(N)=O)NC(=O)[C@H](Cc2ccccc2)NC(=O)[C@H](CO)NC(=O)[C@H](C)NC(=O)[C@H](CCC(N)=O)NC1=O [Compound C236] | 65.1 %ID/g | 42.1 %ID/g | > 720 min | > 720 min | –
